Source: ChEMBL document CHEMBL1201862, “PubChem BioAssay data set” (2004)
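Each compound was tested at five concentrations against cells in 96-well plates for 48 hours. GI50 = concentration required for 50% inhibition of growth.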 Active and inactive are the calls of the source. Cut-off read from the data, not from the text of the source: active = GI50 up to about 1.1 µM and inactive = higher.

Legend:
Experiment in all cases: growth of human tumour cells (NCI), 48 h
NCI/ADR-RES = tested on: NCI/ADR-RES
M19-MEL = tested on: M19-MEL
XF498 = tested on: XF498
SK-MEL-2 = tested on: SK-MEL-2
DMS-273 = tested on: DMS-273
MCF7 = tested on: MCF7
NCI-H226 = tested on: NCI-H226
HOP-92 = tested on: HOP-92
KM-20L2 = tested on: KM-20L2
SNB-78 = tested on: SNB-78
OVCAR-5 = tested on: OVCAR-5
LOX IMVI = tested on: LOX IMVI
DMS-114 = tested on: DMS-114
COLO 205 = tested on: COLO 205
CAKI-1 = tested on: CAKI-1
ACHN = tested on: ACHN
TK-10 = tested on: TK-10
SR = tested on: SR
786-0 = tested on: 786-0
T47D = tested on: T47D

SMILES | GI50 (NCI/ADR-RES) | GI50 (M19-MEL) | GI50 (XF498) | GI50 (SK-MEL-2) | GI50 (DMS-273) | GI50 (MCF7) | GI50 (NCI-H226) | GI50 (HOP-92) | GI50 (KM-20L2) | GI50 (SNB-78) | GI50 (OVCAR-5) | GI50 (LOX IMVI) | GI50 (DMS-114) | GI50 (COLO 205) | GI50 (CAKI-1) | GI50 (ACHN) | GI50 (TK-10) | GI50 (SR) | GI50 (786-0) | GI50 (T47D)
O=C1ON(Cc2ccccc2)C(c2ccccc2)N1c1ccccc1 (configuration not stated) | > 100 µM (inactive) | > 100 µM (inactive) | > 100 µM (inactive) | > 100 µM (inactive) | > 100 µM (inactive) | > 100 µM (inactive) | 99.1 µM (inactive) | > 100 µM (inactive) | > 100 µM (inactive) | > 100 µM (inactive) | > 100 µM (inactive) | > 100 µM (inactive) | > 100 µM (inactive) | > 100 µM (inactive) | – | – | – | – | – | –
O=NN1C(c2ccccc2)CCCC1c1ccccc1 (configuration not stated) | 51.1 µM (inactive) | 85.9 µM (inactive) | 31.7 µM (inactive) | 45.9 µM (inactive) | 39.8 µM (inactive) | 37.9 µM (inactive) | > 100 µM (inactive) | 36.4 µM (inactive) | > 100 µM (inactive) | 46.2 µM (inactive) | > 100 µM (inactive) | 74.8 µM (inactive) | 28.6 µM (inactive) | 50.8 µM (inactive) | 97.7 µM (inactive) | – | – | – | – | –
C=CCN1/C(=C(\C#N)c2nc3ccccc3[nH]2)Sc2c1nc[nH]c2=O | – | > 100 µM (inactive) | > 100 µM (inactive) | > 100 µM (inactive) | > 100 µM (inactive) | – | – | > 100 µM (inactive) | > 100 µM (inactive) | > 100 µM (inactive) | > 100 µM (inactive) | – | > 100 µM (inactive) | > 100 µM (inactive) | > 100 µM (inactive) | > 100 µM (inactive) | > 100 µM (inactive) | > 100 µM (inactive) | – | –
CC(OC(C)(C)C)[C@H](NC(=O)OCC(Cl)(Cl)Cl)C(=O)O (some centres not stated) | – | > 100 µM (inactive) | > 100 µM (inactive) | > 100 µM (inactive) | > 100 µM (inactive) | – | – | > 100 µM (inactive) | > 100 µM (inactive) | > 100 µM (inactive) | > 100 µM (inactive) | – | > 100 µM (inactive) | > 100 µM (inactive) | > 100 µM (inactive) | > 100 µM (inactive) | > 100 µM (inactive) | > 100 µM (inactive) | – | –
O=C1C(Cl)N(c2cccc(Cl)c2)C1c1c[nH]c2ccccc12 (configuration not stated) | – | > 100 µM (inactive) | > 100 µM (inactive) | > 100 µM (inactive) | – | – | – | > 100 µM (inactive) | > 100 µM (inactive) | – | – | – | > 100 µM (inactive) | > 100 µM (inactive) | – | – | > 100 µM (inactive) | > 100 µM (inactive) | – | –
Cc1ccc(-c2cc(-c3ccco3)c(C#N)c(=O)n2C2OC(CO)C(O)C(O)C2O)cc1 (configuration not stated) | – | – | – | – | 50.7 µM (inactive) | – | 58.6 µM (inactive) | – | > 100 µM (inactive) | 65.5 µM (inactive) | > 100 µM (inactive) | 68.1 µM (inactive) | > 100 µM (inactive) | > 100 µM (inactive) | – | 42.9 µM (inactive) | 45.3 µM (inactive) | > 100 µM (inactive) | – | –
C=C(C)CCN[Si](c1ccccc1)(c1ccccc1)C(C)(C)C | – | 20.5 µM (inactive) | 24.5 µM (inactive) | 15.2 µM (inactive) | 18.8 µM (inactive) | – | 12.1 µM (inactive) | 18.2 µM (inactive) | 17.9 µM (inactive) | 25.1 µM (inactive) | – | 17.8 µM (inactive) | 21.7 µM (inactive) | 18.5 µM (inactive) | – | 26 µM (inactive) | 22.5 µM (inactive) | – | 16.6 µM (inactive) | –
CCOC(=O)C(Cc1ccccc1)NC(=O)OC(C)(C)C (configuration not stated) | – | > 100 µM (inactive) | > 100 µM (inactive) | > 100 µM (inactive) | > 100 µM (inactive) | – | – | > 100 µM (inactive) | – | > 100 µM (inactive) | > 100 µM (inactive) | > 100 µM (inactive) | > 100 µM (inactive) | > 100 µM (inactive) | > 10 µM (inactive) | > 100 µM (inactive) | > 100 µM (inactive) | – | > 100 µM (inactive) | –
O=C(/C=C/c1cccc2ccccc12)c1ccccc1Cl | – | – | 7.59 µM (inactive) | 19.3 µM (inactive) | 14.4 µM (inactive) | – | > 100 µM (inactive) | 13 µM (inactive) | 12.7 µM (inactive) | 19.6 µM (inactive) | – | – | 12 µM (inactive) | > 100 µM (inactive) | 14.4 µM (inactive) | 17.5 µM (inactive) | 14.6 µM (inactive) | 4.35 µM (inactive) | 14 µM (inactive) | –
COC(=O)c1ccc(/N=N/N(C)COc2ccc([N+](=O)[O-])cc2)cc1 | > 100 µM (inactive) | > 100 µM (inactive) | > 100 µM (inactive) | > 80.9 µM (inactive) | > 100 µM (inactive) | > 81.5 µM (inactive) | > 100 µM (inactive) | 65.3 µM (inactive) | 54.3 µM (inactive) | > 100 µM (inactive) | > 95.7 µM (inactive) | > 86.9 µM (inactive) | > 100 µM (inactive) | > 57.3 µM (inactive) | – | – | – | – | – | –
O=C1C=CC2=[N+]([O-])C(c3ccccc3)(c3ccccc3)/C(=N\c3ccccc3)C2=C1 | – | 1.77 µM (inactive) | 1.31 µM (inactive) | 18.2 µM (inactive) | 2.38 µM (inactive) | – | 8.89 µM (inactive) | 1.7 µM (inactive) | 2.34 µM (inactive) | 3.74 µM (inactive) | 16.4 µM (inactive) | 1.8 µM (inactive) | 1.85 µM (inactive) | – | 2.44 µM (inactive) | 1.74 µM (inactive) | 1.8 µM (inactive) | 0.269 µM (active) | – | –
CN1NC(c2ccccc2)=C(C#N)C(=O)CC1c1ccc(Br)cc1 (configuration not stated) | – | – | 28.6 µM (inactive) | 28.3 µM (inactive) | – | – | 0.123 µM (active) | 35.2 µM (inactive) | > 10 µM (inactive) | 48.8 µM (inactive) | 25.5 µM (inactive) | 35.4 µM (inactive) | – | – | 41.9 µM (inactive) | 34 µM (inactive) | 75.3 µM (inactive) | 36.2 µM (inactive) | – | –
O=C1NC2=C(CCCC/C2=N\O)C12CCCCC2 | – | > 100 µM (inactive) | > 100 µM (inactive) | – | – | – | > 100 µM (inactive) | – | > 100 µM (inactive) | > 100 µM (inactive) | > 100 µM (inactive) | > 100 µM (inactive) | > 100 µM (inactive) | – | – | > 100 µM (inactive) | > 100 µM (inactive) | 80.9 µM (inactive) | – | –
COC(=O)C12CC3CC(CC(C(=O)O)(C3)C1)C2 | – | > 100 µM (inactive) | > 100 µM (inactive) | – | > 100 µM (inactive) | – | – | > 100 µM (inactive) | > 100 µM (inactive) | > 100 µM (inactive) | > 100 µM (inactive) | > 100 µM (inactive) | – | – | > 100 µM (inactive) | > 100 µM (inactive) | > 100 µM (inactive) | > 100 µM (inactive) | > 100 µM (inactive) | –
CC(=O)O[C@]12CCCCCC1C1(O)C(O)CCCC[C@H]12 (some centres not stated) | – | > 100 µM (inactive) | > 100 µM (inactive) | > 100 µM (inactive) | > 100 µM (inactive) | – | > 100 µM (inactive) | – | > 100 µM (inactive) | > 100 µM (inactive) | – | > 100 µM (inactive) | > 100 µM (inactive) | > 100 µM (inactive) | – | > 100 µM (inactive) | > 100 µM (inactive) | > 100 µM (inactive) | > 100 µM (inactive) | –
O=S(=O)(O)c1ccc(/N=N\c2ccc(/N=N/c3ccc(/C=C/c4ccc(/N=[N+](\[O-])c5ccc(/C=C/c6ccc(/N=N/c7ccc(/N=N/c8ccc(S(=O)(=O)O)cc8)c8ccccc78)cc6S(=O)(=O)O)c(S(=O)(=O)O)c5)cc4S(=O)(=O)O)c(S(=O)(=O)O)c3)c3ccccc23)cc1 | > 100 µM (inactive) | > 100 µM (inactive) | > 66.8 µM (inactive) | > 100 µM (inactive) | > 100 µM (inactive) | > 100 µM (inactive) | > 83.4 µM (inactive) | > 81.1 µM (inactive) | > 100 µM (inactive) | > 100 µM (inactive) | > 100 µM (inactive) | > 100 µM (inactive) | > 100 µM (inactive) | > 100 µM (inactive) | – | – | – | – | – | –
O=C(O)Cc1cccc2c1Oc1ccccc1S2 | – | > 100 µM (inactive) | – | > 100 µM (inactive) | > 100 µM (inactive) | – | > 100 µM (inactive) | > 100 µM (inactive) | > 100 µM (inactive) | > 100 µM (inactive) | – | > 100 µM (inactive) | > 100 µM (inactive) | > 100 µM (inactive) | – | > 100 µM (inactive) | > 100 µM (inactive) | – | > 100 µM (inactive) | –
CC(=O)O[C@@]12CO[C@@H]1CC(O)[C@@]1(C)C(=O)[C@H](O)C3=C(C)C(O)C[C@@](O)(C(OC(=O)c4ccccc4)C12)C3(C)C (some centres not stated) | > 100 µM (inactive) | 12.8 µM (inactive) | 2.07 µM (inactive) | 0.367 µM (active) | 0.472 µM (active) | 0.463 µM (active) | > 100 µM (inactive) | 22.6 µM (inactive) | 0.679 µM (active) | 15.5 µM (inactive) | 3.94 µM (inactive) | 0.839 µM (active) | – | 0.434 µM (active) | 24.8 µM (inactive) | 51.2 µM (inactive) | 8.51 µM (inactive) | 1.06 µM (active) | 2.9 µM (inactive) | > 100 µM (inactive)
C[C@]12CCC(=O)C(O)=C1CC[C@@H]1[C@@H]2CC[C@]2(C)C(=O)CC[C@@H]12 [FORMESTANE] | > 100 µM (inactive) | – | 88.1 µM (inactive) | > 100 µM (inactive) | – | > 100 µM (inactive) | > 100 µM (inactive) | > 81.8 µM (inactive) | > 100 µM (inactive) | > 100 µM (inactive) | > 100 µM (inactive) | > 100 µM (inactive) | > 100 µM (inactive) | > 100 µM (inactive) | > 92.9 µM (inactive) | > 100 µM (inactive) | > 100 µM (inactive) | > 100 µM (inactive) | > 100 µM (inactive) | > 100 µM (inactive)
